In this assay the target is T1, Recombinant human DGAT2 protein (Homo sapiens, UniProt Q96PD7).
T1 construct: FLAG (DYKDDDDK); (N); made in house; host or cells: Sf-21 insect cells (BacPAK baculovirus system); used as a membrane preparation
T1 sequence (Q96PD7 1-388): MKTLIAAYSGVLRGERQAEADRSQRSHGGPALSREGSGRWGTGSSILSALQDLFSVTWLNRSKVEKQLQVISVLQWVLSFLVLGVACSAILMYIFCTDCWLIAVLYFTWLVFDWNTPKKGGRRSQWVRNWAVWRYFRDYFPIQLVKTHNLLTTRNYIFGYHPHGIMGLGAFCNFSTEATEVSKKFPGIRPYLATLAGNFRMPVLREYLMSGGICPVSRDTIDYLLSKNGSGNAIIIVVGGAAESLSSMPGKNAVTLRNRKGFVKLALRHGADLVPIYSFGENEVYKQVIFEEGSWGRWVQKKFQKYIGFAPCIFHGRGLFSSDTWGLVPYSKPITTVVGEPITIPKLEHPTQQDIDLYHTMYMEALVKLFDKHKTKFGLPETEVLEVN
The assay can be described thus: Measurement of inhibitory effect against DGAT2 enzyme activity (SPA, Phospholipid FlashPlate, [14C]-TG production). It counts as biochemical. As to conditions: concentration inhibiting [14C]-labeled triacyl glycerol (TG) production by 50%; 2 μg DGAT2-membrane protein from Sf-21 cells, 37° C. As to the method:
Experimental Example: Measurement of Inhibitory Effect Against DGAT2 Enzyme Activity
In order to prepare the pBacPAK9-DGAT2, which is DGAT2 expression vector, the human DGAT2 gene amplified by polymerase chain reaction (PCR) was cloned into the EcoR1 and Xho1 sites of the pBacPAK9 (clonctech) vector. The nucleotide sequence of the primers used in PCR was the forward primer 5′ […] and the reverse primer 5′ […]. The composition of the reaction solution was to contain 50 ng of cDNA clone (OriGene), 200 μM of dATP, dCTP, dTTP, dGTP, 200 nM of each primer, 1 unit of Tag DNA Polymerase (Toyobo), 1×PCR buffer, and the final volume was adjusted to 20 μl. The reaction conditions were denatured at 95° C. for 5 minutes, followed by 30 times of 94° C. for 20 seconds, 60° C. for 20 seconds, and 72° C. for 90 seconds, followed by further reaction at 72° C. for 7 minutes.
Recombinant human DGAT2 protein was expressed in Sf-21 cells, which are insect cells, by using the BacPack baculovirus expression system (Clontech). The brief manufacturing process is as follows. First, the pBacPAK9-DGAT2 expression vector was transfected with BacPAK6 virus DNA (Bsu36I digest) into sf21 cells using Bacfectin to prepare a recombinant DGAT2 expressing baculovirus. The thus prepared baculovirus was infected with Sf-21 cells at 10 MOI (multiplicity of infection), and after 72 hours, infected insect cells were collected and membrane proteins were isolated. For membrane protein separation, the cell pellet was dissolved in a sucrose solution containing 250 mM sucrose, 10 mM Tris (pH 7.4), and 1 mM ethylenediamine-tetraacetic acid (EDTA), and then homogenized by using a dounce homogenizer, and the supernatant was taken by centrifuging at 600×g for 15 minutes, and centrifuged at 100,000×g for 1 hour to discard the supernatant, and the remaining pellet was resuspended in 20 mM HEPES buffer (pH 7.4). The prepared DGAT2 overexpressing membrane protein was dispensed in 100 μl and stored at −80° C. until use. Protein concentration was quantified by using the BCA Protein Assay Kit (Thermo Scientific).
In vitro DGAT2 analysis was performed using a Phospholipid Flash Plate (PerkinElmer) based on the principle of SPA (Scintillation Proximity Assay). First, DGAT2 inhibition compounds serially diluted 5 times from 3 nM to 10 μM (final concentration, 1% DMSO) were mixed in a buffer solution containing 2 μg DGAT2-membrane protein and 20 mM HEPES, 20 mM MgCl2, 1 mg/mL BSA, 50 μM 1,2 sn-oleoyl glycerol (Sigma), put in a 96-well flash plate (FlashPlate) and reacted at 37° C. for 20 minutes, and then 1 μM [14C] ole oil CoA (PerkinElmer, NEC651050UC) was added to be a final volume of 100 μL and further reacted at 37° C. for 15 minutes. After the enzymatic reaction was completed, 100 μL of isopropanol was added, the plate was sealed with a film, and the plate was shaken slowly in a plate shaker. The next day, the amplified scintillation signal (cpm) in Topcounter (Packard) was measured to measure the degree of production of [14C]-labeled triacyl glycerol (TG) as a reaction product. The measured value when the compound was not treated was used as a positive control, and the measured value of the compound treated group was calculated as a relative % to measure the inhibition effect of the compound on TG production.

As usually defined, the IC50 is the concentration needed to halve the response being measured. `CCOc1ccccc1O[C@@H]1CCCN(c2cncc(NC(=O)C3CCN(C(C)=O)CC3)n2)C1` [Example 16]: the IC50 amounted to 390 nM.

Consider `CCOc1ccccc1O[C@@H]1CCCN(c2cncc(NC(=O)C3CCN(S(=O)(=O)C(C)C)CC3)n2)C1` [Example 17, (R)—N-(6-(3-(2-ethoxyphenoxy)piperidin-1-yl)pyrazin-2-yl)-1-(isopropylsulfonyl)piperidine-4-carboxamide], for which the IC50 was determined as 10 nM.

`CCOc1ccccc1O[C@@H]1CCCN(c2cncc(NC(=O)C3CCN(c4ncc(CC)cn4)CC3)n2)C1` [Example 18, (R)—N-(6-(3-(2-ethoxyphenoxy)piperidin-1-yl)pyrazin-2-yl)-1-(5-ethylpyrimidin-2-yl)piperidine-4-carboxamide]: the IC50 came to 8 nM.

`CCOc1ccccc1O[C@@H]1CCCN(c2cncc(NC(=O)CCC(=O)O)n2)C1` [Example 19, (R)-4-((6-(3-(2-ethoxyphenoxy)piperidin-1-yl)pyrazin-2-yl)amino)-4-oxobutanoic acid]: the IC50 is around 15000 nM.

Consider `CCOc1ccccc1O[C@@H]1CCCN(c2cncc(NC(=O)C3CCC[C@H]3C(=O)O)n2)C1` (stereo partly drawn) [Example 20, (1R)-2-((6-((R)-3-(2-ethoxyphenoxy)piperidin-1-yl)pyrazin-2-yl)carbamoyl)cyclopentane-1-carboxylic acid], for which the half-inhibitory concentration (IC50) was 4000 nM.

In the case of `CCOc1ccccc1O[C@@H]1CCCN(c2cncc(NC(=O)C34CCC(C(=O)O)(CC3)CC4)n2)C1` [Example 21, (R)-4-((6-(3-(2-ethoxyphenoxy)piperidin-1-yl)pyrazin-2-yl)carbamoyl)bicyclo[2.2.2]octane-1-carboxylic acid], the IC50 was 4800 nM.

Take `CCOc1ccccc1O[C@@H]1CCCN(c2cncc(NC(=O)CC(C)(C)C(=O)O)n2)C1` [Example 22, (R)-4-((6-(3-(2-ethoxyphenoxy)piperidin-1-yl)pyrazin-2-yl)amino)-2,2-dimethyl-4-oxobutanoic acid]: the IC50 was found to be 1300 nM.

For `CCOc1ccccc1O[C@@H]1CCCN(c2cncc(N3C(=O)CC(C)(C)C3=O)n2)C1` [Example 23, (R)-1-(6-(3-(2-ethoxyphenoxy)piperidin-1-yl)pyrazin-2-yl)-3,3-dimethylpyrrolidine-2,5-dione], the IC50 was 7400 nM.

`CCOc1ccccc1O[C@@H]1CCCN(c2cncc(NC(=O)CCC(C)(C)C(=O)O)n2)C1` [Example 24, (R)-5-((6-(3-(2-ethoxyphenoxy)piperidin-1-yl)pyrazin-2-yl)amino)-2,2-dimethyl-5-oxopentanoic acid]: the IC50 is 300 nM.

In the case of `CCOc1ccccc1O[C@@H]1CCCN(c2cncc(NC(=O)CC(C)(C)CC(=O)O)n2)C1` [Example 25, (R)-5-((6-(3-(2-ethoxyphenoxy)piperidin-1-yl)pyrazin-2-yl)amino)-3,3-dimethyl-5-oxopentanoic acid], the IC50 was determined as 1800 nM.

`CCOc1ccccc1O[C@@H]1CCCN(c2cncc(NC(=O)Cc3cccc(C(F)(F)F)c3)n2)C1` [Example 26]: the IC50 is 54 nM.

As to `CCOc1ccccc1O[C@@H]1CCCN(c2cncc(NC(=O)Cc3cc(C(F)(F)F)cc(C(F)(F)F)c3)n2)C1` [Example 27, (R)-2-(3,5-bis(trifluoromethyl)phenyl)-N-(6-(3-(2-ethoxyphenoxy)piperidin-1-yl)pyrazin-2-yl)acetamide], the IC50 was 49 nM.

As for `CCOc1ccccc1O[C@@H]1CCCN(c2cncc(NC(=O)CCc3ccccc3)n2)C1` [Example 29, (R)—N-(6-(3-(2-ethoxyphenoxy)piperidin-1-yl)pyrazin-2-yl)-3-phenylpropanamide], the IC50 turned out to be 18 nM.

Take `CCOc1ccccc1O[C@@H]1CCCN(c2cncc(NC(=O)Cc3cccc(Cl)c3)n2)C1` [Example 30, (R)-2-(3-chlorophenyl)-N-(6-(3-(2-ethoxyphenoxy)piperidin-1-yl)pyrazin-2-yl)acetamide]: the IC50 was determined as 29 nM.

As to `CCOc1ccccc1O[C@@H]1CCCN(c2cncc(NC(=O)C(C)(C)c3ccccc3)n2)C1` [Example 31, (R)—N-(6-(3-(2-ethoxyphenoxy)piperidin-1-yl)pyrazin-2-yl)-2-methyl-2-phenylpropanamide], the IC50 is 180 nM.

As for `CCOc1ccccc1O[C@@H]1CCCN(c2cncc(NC(=O)Cc3cccc(C(=O)O)c3)n2)C1` [Example 33, (R)-3-(2-((6-(3-(2-ethoxyphenoxy)piperidin-1-yl)pyrazin-2-yl)amino)-2-oxoethyl)benzoic acid], the IC50 came out at 4500 nM.

For the molecule `CCOc1ccccc1O[C@@H]1CCCN(c2cncc(NC(=O)Cc3ccc(CC(=O)O)cc3)n2)C1` [Example 34, (R)-2-(4-(2-((6-(3-(2-ethoxyphenoxy)piperidin-1-yl)pyrazin-2-yl)amino)-2-oxoethyl)phenyl)acetic acid], the IC50 worked out at 1100 nM.

As for `CCOc1ccccc1O[C@@H]1CCCN(c2cncc(NC(=O)Cc3ccc(CC(N)=O)cc3)n2)C1` [Example 35], the IC50 came out at 30 nM.

As to `CCOc1ccccc1O[C@@H]1CCCN(c2cncc(NC(=O)Cc3ccc(O)cc3)n2)C1` [Example 36, (R)—N-(6-(3-(2-ethoxyphenoxy)piperidin-1-yl)pyrazin-2-yl)-2-(4-hydroxyphenyl)acetamide], the IC50 was determined as 12 nM.

With `CCOc1ccccc1O[C@@H]1CCCN(c2cncc(NC(=O)Cc3ccc(OCCCC(=O)O)cc3)n2)C1` [Example 37, (R)-4-(4-(2-((6-(3-(2-ethoxyphenoxy)piperidin-1-yl)pyrazin-2-yl)amino)-2-oxoethyl)phenoxy)butanoic acid], the IC50 worked out at 460 nM.

For `CCOc1ccccc1O[C@@H]1CCCN(c2cncc(NC(=O)Cc3ccc(OC(C)(C)C(=O)O)cc3)n2)C1` [Example 38], the IC50 was 200 nM.

Take `CCOc1ccccc1O[C@@H]1CCCN(c2cncc(NC(=O)C(C)(C)c3ccc(C(C)(C)C(=O)O)cc3)n2)C1` [Example 39, (R)-2-(4-(1-((6-(3-(2-ethoxyphenoxy)piperidin-1-yl)pyrazin-2-yl)amino)-2-methyl-1-oxopropan-2-yl)phenyl)-2-methylpropanoic acid]: the IC50 amounted to 770 nM.

As to `CCOc1ccccc1O[C@@H]1CCCN(c2cncc(NC(=O)/C=C/c3ccc(C(=O)O)cc3)n2)C1` [Example 41, (R,E)-4-(3-((6-(3-(2-ethoxyphenoxy)piperidin-1-yl)pyrazin-2-yl)amino)-3-oxoprop-1-en-1-yl)benzoic acid], the IC50 worked out at 3100 nM.

With `CCOc1ccccc1O[C@@H]1CCCN(c2cncc(NC(=O)/C(C)=C/c3ccc(C(=O)O)cc3)n2)C1` [Example 42, (R,E)-4-(3-((6-(3-(2-ethoxyphenoxy)piperidin-1-yl)pyrazin-2-yl)amino)-2-methyl-3-oxoprop-1-en-1-yl)benzoic acid], the IC50 was determined as 1300 nM.

For `CCOc1ccccc1O[C@@H]1CCCN(c2cncc(NC(=O)C(C)Cc3ccc(C(=O)O)cc3)n2)C1` (stereo partly drawn) [Example 43, 4-(3-((6-((R)-3-(2-ethoxyphenoxy)piperidin-1-yl)pyrazin-2-yl)amino)-2-methyl-3-oxopropyl)benzoic acid], the IC50 was 330 nM.

On to `CCOc1ccccc1O[C@@H]1CCCN(c2cncc(NC(=O)CCc3ccc(C(=O)O)c(F)c3)n2)C1` [Example 44, (R)-4-(3-((6-(3-(2-ethoxyphenoxy)piperidin-1-yl)pyrazin-2-yl)amino)-3-oxopropyl)-2-fluorobenzoic acid], for which the IC50 is 170 nM.
